Literature values as cited in article PMC5571359, “Screening the Medicines for Malaria Venture Pathogen Box across Multiple Pathogens Reclassifies Starting Points for Open-Source Drug Discovery” (Antimicrobial Agents and Chemotherapy, 2017).
Where two headings read alike, the source gives them in different places.

What was measured:
P. falciparum ABS = details: cited from earlier work; for EC50: ChEMBL Data; for IC50: read-out: Pf 3D7 Pbox IC50
HepG2 = details: cited from earlier work
[1] = TCMDC, read-out: TCMDC (ref 93) EX50
[2] = Pf 3D7, ref Pathogen Box supporting information
[3] = read-out: HepG2 PBox CC50 µM, HepG2 cytotoxicity, ref PBox supporting information
[4] = ref Pbox supporting information
[5] = P. falciparum, read-out: TCMDC (ref 93) EX50
[6] = P. falciparum 3D7, ref PBox supporting information
[7] = HepG2, ref PBox supporting information
[8] = P. falciparum, read-out: NITD (ref 94) EC50

COc1ccccc1CNC(=O)c1cc(C2CC2)nc2c1cnn2C(C)C [MMV020517]
EC50 (P. falciparum ABS; [1]): 1020 nM
IC50 (P. falciparum ABS; [2]): 940 nM

CC(C(=O)N1CCCC1)N1CCN(S(=O)(=O)c2ccc(C(C)(C)C)cc2)CC1 (centres unmarked) [MMV020291]
EC50 (P. falciparum ABS; [1]): 640 nM
IC50 (P. falciparum ABS; [2]): 900 nM

O=C(NC1=NCCS1)c1sc2cc(F)ccc2c1Cl [MMV676584]
CC50 (HepG2; [3]): > 100 µM

O=C(Nc1cccc(-c2ccc(NCCCN3CCCC3)nc2)c1)c1ccccc1 [MMV023953]
EC50 (P. falciparum ABS; [1]): 870 nM
IC50 (P. falciparum ABS; [2]): 850 nM

COCC(C)NC(=O)CSc1ncnc2sc(-c3ccccc3)cc12 (centres unmarked) [MMV676536]
HepG2 PBox CC20 μMc (HepG2; [4]): >80 µM

CCS(=O)(=O)N(Cc1ccco1)Cc1cc2ccc(C)cc2nc1O [MMV676398]
HepG2 PBox CC20 μMc (HepG2; [4]): >80 µM

CS(=O)(=O)c1cccc(-c2cnc3[nH]cc(-c4ccc(CCC(=O)O)cc4)c3c2)c1 [MMV026020]
EC50 (P. falciparum ABS; [5]): 630 nM
IC50 (P. falciparum ABS; [6]): 500 nM

CCOC(=O)NC(=O)c1ccsc1NC(=O)c1nc2ccccc2s1 [MMV090930]
CC50 (HepG2; [3]): 47 µM

COc1ccc(-c2nnc3ccc(-c4cccc(C(C)C)c4)cn23)cc1OC [MMV688313]
HepG2 PBox CC20 μMc (HepG2; [4]): 7.5 µM

CC(C)(C)CN1C(=O)C(c2ccccc2)(c2ccccc2)N=C1N [MMV026550]
EC50 (P. falciparum ABS; [5]): 520 nM
IC50 (P. falciparum ABS; [6]): 800 nM

N#Cc1nc(-c2ccccc2)oc1S(=O)(=O)c1ccc(Cl)cc1 [MMV676412]
CC50 (HepG2; [3]): 2.2 µM

O=C(NCc1ccco1)N1CCN(Cc2ccc(Cl)s2)CC1 [MMV688555]
CC50 (HepG2; read-out: HepG2 PBox CC50, HepG2, ref PBox supporting information): > 100 µM

c1coc(CNc2nc(N3CCCCC3)nc3ccccc23)c1 [MMV676401]
CC50 (HepG2; [3]): 18.6 µM

Cc1nnc(NCc2cccc(Cl)c2)c2ccccc12 [MMV676555]
CC50 (HepG2; [3]): 76 µM

O=C1O[C@@H](CO)CN1c1cc(F)c(C2=CCN(Cc3ccccc3)CC2)c(F)c1 [MMV687729]
CC50 (HepG2): 38.8 µM

Nc1ncnc2c1ncn2C[C@@H](O)[C@@H](O)C(=O)O [MMV689255]
HepG2 PBox CC20 (HepG2; [7]): >80 µM

COc1cccn2c(C(=O)N3CCCCC3)c(C(F)(F)F)nc12 [MMV1110498]
HepG2 PBox CC20 μMc (HepG2; [4]): >80 µM

O=C(c1cc2ccccc2o1)N1CCN(Cc2ccc3c(c2)OCO3)CC1 [MMV676520]
CC50 (HepG2; [3]): > 100 µM

CC(C)(C)c1cc(C(=O)Nc2cccnc2)cc(C(=O)Nc2cccnc2)c1 [MMV020982]
EC50 (P. falciparum ABS; [1]): 760 nM
IC50 (P. falciparum ABS; [2]): 900 nM

CC1CCCN(C(=O)C(C)Nc2cc(Cl)ccc2N2CCOCC2)C1 (centres unmarked) [MMV020388]
EC50 (P. falciparum ABS; [1]): 320 nM
IC50 (P. falciparum ABS; [2]): 520 nM

O=C(Nc1cnc2ccccc2c1)c1cccc(-n2cnnn2)c1 [MMV084864]
EC50 (P. falciparum ABS; [8]): 170 nM
IC50 (P. falciparum ABS; [6]): 540 nM

CN1CCC[C@@H]1CCO[C@](C)(c1ccccc1)c1ccc(Cl)cc1 [MMV637229, clemastine, reference compound]
HepG2 PBox CC20 μMc (HepG2): 9.3 µM

O=C1O[C@@H](COc2ccon2)CN1c1cc(F)c(C2=CCN(Cc3ccccc3)CC2)c(F)c1 [MMV687813]
CC50 (HepG2): 30.4 µM

Clc1ccc(-n2cc(COc3ccnc4ccccc34)nn2)cc1 [MMV675994]
HepG2 PBox CC20 (HepG2; [7]): 13.6 µM

Cc1ccc2oc(-c3cc(NC(=O)Cc4ccccc4)ccc3Cl)nc2c1 [MMV676509]
CC50 (HepG2; [3]): 83.6 µM

OCc1ccc(-c2cncc(Nc3cccc(Cl)c3)c2)cc1 [MMV026468]
EC50 (P. falciparum ABS; [5]): 74 nM
IC50 (P. falciparum ABS; [6]): 33.5 nM

COc1ccc(Cn2cnc3c(-c4ccco4)nc(Cl)nc32)cc1 [MMV687170]
CC50 (HepG2; [3]): > 100 µM

CCCCS(=O)(=O)Nc1ccc2cnn(C)c2c1 [MMV687145]
CC50 (HepG2; [3]): > 100 µM

N#Cc1nc(-c2ccccc2F)oc1NCCc1ccccc1 [MMV676384]
CC50 (HepG2; [3]): > 100 µM

CCN(CC)CCCN1CCN(C(=O)c2cccc(-c3noc(C(F)(F)F)n3)c2)CC1 [MMV022236]
EC50 (P. falciparum ABS; [1]): 150 nM
IC50 (P. falciparum ABS; [2]): 190 nM

COc1ccccc1C(C)NCC(=O)Nc1cc(C(F)(F)F)ccc1Cl (centres unmarked) [MMV020321]
EC50 (P. falciparum ABS; [1]): 780 nM
IC50 (P. falciparum ABS; [2]): 1380 nM

Cc1ccc2nc(Cl)c(CNCc3cccs3)cc2c1 [MMV676439]
CC50 (HepG2; [3]): > 100 µM

CCCNC(=O)N1CCC2(CC1)CC(=O)c1cc(C)ccc1O2 [MMV085230]
EC50 (P. falciparum ABS; [8]): 870 nM
IC50 (P. falciparum ABS; [6]): 2060 nM

CC(=O)Nc1ccc(NC(=O)c2cc(-c3cc(Cl)ccc3O)[nH]n2)cc1 [MMV676380]
EC50 (P. falciparum ABS; [5]): 180 nM
IC50 (P. falciparum ABS; [6]): 350 nM

CCCn1nnc(NC(=O)COc2ccc(C3CCCCC3)cc2)n1 [MMV676597]
CC50 (HepG2; [3]): > 100 µM

O=C(Nc1cccnc1)c1c(O)c2cccc3c2n(c1=O)CC3 [MMV676395]
CC50 (HepG2; [3]): > 100 µM

COc1cccc(OC)c1C(=O)Nc1ccc(Cl)c(-c2nc3ccccc3s2)c1 [MMV676472]
CC50 (HepG2; [3]): > 100 µM
